In brackets after ≈: the same amount, converted by molar mass. Where two headings read alike, the source gives them in different places. Marks after values point to notes of the source that are not given here.
What was measured:
HIV-1(IIIB) [1] = assay: HIV-1(IIIB) p24 antigen production in PBL (PHA-stimulated PBMC); format: cell-based
Experimental: Peripheral blood mononuclear cells (PBMC) from healthy donors were isolated by density centrifugation (Lymphoprep; Nycomed Pharma, AS Diagnostics, Oslo, Norway) and stimulated with phytohemagglutin (PHA) (Sigma Chemical Co., Bornem, Belgium) for 3 days. The activated cells (PHA-stimulated blasts) were washed with PBS and viral infections were done as described by the AIDS clinical trial group protocols. Briefly, PBMCs (2×10^5/200 well) were plated in the presence of serial dilutions of the test compound and were infected with HIV stocks at 1000 CCID50 per mL. At day 4 post-infection, 125 μl of the supernatant of the infected cultures was removed and replaced with 150 μl of fresh medium containing the test compounds at the appropriate concentrations. At 7 days after plating the cells, p24 antigen was detected in the culture supernatant by an enzyme-linked immunosorbent assay (NEN, Paris, France).

HIV-2(ROD) [2] = assay: HIV-2(ROD)-induced cytopathicity in CEM cell cultures; format: cell-based; conditions: giant cell formation; Table 2
Text: (§1) Viruses. The origins of MSV, HIV type 1 (HIV-1) (strain IIIB and Ba-L), HIV-2 (strain ROD) and FIV (strain Petaluma) have been described previously (Balzarini et al., AIDS 5: 21-28, 1991; De Clercq et al., Proc. Soc. Exp. Biol. Med. 137:590-594, 1971; Egberink et al., Proc. Natl. Acad. Sci. 87:3087-3091, 1990; Hartmann et al., Antiviral Chem. Chemother. 5:13-19, 1994; Popovic et al., Science 224:497-500, 1984). HIV-1(IIIB) and HIV-2(ROD) stocks were obtained from supernatants of virus-infected MT-4 cell cultures. HIV-1BaL was expanded in human primary M/M, whose supernatants were collected, filtered and stored at −80° C. before use. Characteristics of viral stocks used for this study were 2.1×10^8 HIV-RNA genomes/ml (corresponding to 35 ng of p24 antigen) and 5,000 tissue culture infectious doses 50% per ml (TCID50/ml) as assessed by virus titration in other primary M/M cultures. The isolation and characterization of the clinical HIV-1 isolates L1S, L6S and L6S/PMEA has been reported (Thormar et al., Proc. Natl. Acad. Sci. USA 93:3283-3287, 1995; Van Laethem et al., AIDS 15:553-561, 2001). […] HIV-1/L6S/PMEA is the clinical isolate HIV-1/L6S that has been isolated after culturing the virus for 11 passages in the presence of increasing concentrations of PMEA (adefovir).
(§2) In vitro antiviral assays. The activity against HIV-1- and HIV-2-induced cytopathicity was examined in MT-4 cell cultures at day 5 post infection and based on the determination of cell viability by trypan blue dye staining or in CEM cell cultures at day 4 to 5 post infection and based on the microscopical examination of virus-induced giant cell formation. HIV-1 and HIV-2 were added at 100 CCID50 to the cell cultures.

HIV-2(ROD) [3] = assay: HIV-2(ROD)-induced cytopathicity in MT-4 cell cultures; format: cell-based; conditions: Table 2
Text: as §1, §2

HIV-1/L6S/PMEA = format: cell-based; conditions: measured against the laboratory HIV-1/IIIB strain in CEM cell cultures
Text: as §1, §2

HIV-1/L6S = format: cell-based; conditions: measured against the laboratory HIV-1/IIIB strain in CEM cell cultures
Text: as §1, §2

HIV-1/L1S = format: cell-based; conditions: measured against the laboratory HIV-1/IIIB strain in CEM cell cultures
Text: as §1, §2

HIV = assay: Anti-HIV activity across HIV-1 and HIV-2 in CEM and MT-4 cell cultures; format: cell-based; conditions: HIV-1 and HIV-2 in CEM and MT-4 cells
Experimental: as §2

FIV (strain Petaluma) = assay: Anti-FIV assay, p24 antigen in CrFK cells; format: cell-based; conditions: Table 2
Experimental: For the anti-FIV assays, 10^5 CrFK cells were seeded onto 24-well tissue culture plates. Cells were cultured with 2 ml of culture medium/well containing 2.5% of fetal calf serum in the presence of various drug concentrations. The assays were carried out in triplicate. After a 1-hr incubation period at 37° C., cells were infected with FIV. Virus was left in contact with the cultures for 1 day, after which the medium was removed and new medium containing the appropriate drug concentrations was added. After 6 days, the presence of FIV p24 antigen was examined by an antigen capture assay.

HIV-1(IIIB) [4] = assay: HIV-1(IIIB)-induced cytopathicity in MT-4 cell cultures; format: cell-based; conditions: Table 2
Text: as §1, §2

HIV-1(IIIB) [5] = assay: HIV-1(IIIB)-induced cytopathicity in CEM cell cultures; format: cell-based; conditions: for EC50 as such / EC50 upon addition of Ade (100 μM) / EC50 upon addition of Ado (400 μM) / EC50 upon addition of Guo (10 μM) / EC50 upon addition of dCyd (1 mM) / EC50 upon addition of dThd (10 μM): HIV-1 (IIIB) in CEM; for EC50 as such: no addition, Table 3; for EC50 HIV-1 (CEM): HIV-1(IIIB)-induced cytopathicity in CEM cell cultures, Table 1; for EC50 HIV-1 (IIIB) (CEM): giant cell formation, mean ±SD of 2 to 4 experiments, Table 2
Text: as §1, §2

MSV = format: in vivo; conditions: for Number of Mice not Developing a Tumor (percent): intraperitoneal, 5 daily doses, newborn NMRI mice
[6] = test system: HIV-1(IIIB) strains containing L100I, K103N, Y181C and Y188H mutations in the RT; assay: HIV-1(IIIB) strains with NNRTI-specific RT mutations in CEM cell cultures; format: cell-based; conditions: data not shown
Experimental: as §2

[7] = 20 mg/kg, premature death not taken into account

SMILES	EC50 HIV-1(IIIB) in PBL (HIV-1(IIIB) [1])	EC50 HIV-2 (ROD) (CEM) (HIV-2(ROD) [2])	EC50 HIV-2 (ROD) (MT-4) (HIV-2(ROD) [3])	-Fold Resistance HIV-1/L6S/PMEA (HIV-1/L6S/PMEA)	-Fold Resistance HIV-1/L6S (HIV-1/L6S)	-Fold Resistance HIV-1/L1S (HIV-1/L1S)	EC50 FIV (CrFK) (FIV (strain Petaluma))	EC50 HIV-1 (IIIB) (MT-4) (HIV-1(IIIB) [4])	EC50 as such (HIV-1(IIIB) [5])	EC50 upon addition of Ade (100 μM) (HIV-1(IIIB) [5])	EC50 upon addition of Ado (400 μM) (HIV-1(IIIB) [5])	EC50 upon addition of Guo (10 μM) (HIV-1(IIIB) [5])	EC50 upon addition of dCyd (1 mM) (HIV-1(IIIB) [5])	EC50 upon addition of dThd (10 μM) (HIV-1(IIIB) [5])	EC50 HIV-1 (CEM) (HIV-1(IIIB) [5])	EC50 HIV-1 (IIIB) (CEM) (HIV-1(IIIB) [5])	Number of Long-Term Survivors (%) (>30 days) (MSV; 2 mg/kg)	Number of Mice not Developing a Tumor (percent) (MSV; 2 mg/kg)	Number of Long-Term Survivors (%) (>30 days) (MSV; 8 mg/kg)	Number of Mice not Developing a Tumor (percent) (MSV; 8 mg/kg)	also measured
C[C@H](Cn1cnc2c(N)ncnc21)OCP(=O)(O)O [(R)-PMPA, (R)-9-[(2-phosphonomethoxy)-propyl]adenine, reference compound]	0.33 µg/mL (≈ 1.15 µM)	0.43 ± 0.41 µg/mL (≈ 1.5 µM)	0.52 µg/mL (≈ 1.81 µM)	54 fold	11 fold	2.3 fold	0.13 µg/mL (≈ 0.453 µM)	0.46 ± 0.006 µg/mL (≈ 1.6 µM)	0.57 ± 0.26 µg/mL (≈ 1.98 µM)	1.6 ± 1.6 µg/mL	0.46 ± 0.23 µg/mL	0.43 ± 0.0 µg/mL	0.53 ± 0.26 µg/mL	0.43 ± 0.0 µg/mL	0.36 µg/mL (≈ 1.25 µM)	0.36 ± 0.24 µg/mL (≈ 1.25 µM)	31%	0%	83%	65%	EC50 HIV-1 (IIIB) (PBL) (HIV-1(IIIB) [1]; p24 antigen production, Table 2): 0.09 ± 0.03 µg/mL (≈ 0.313 µM); EC50 values for HIV (range over virus/cell systems) (HIV): 0.36 to 0.52 µg/mL; Number of Mice not Developing a Tumor (percent) (MSV; 20 mg/kg): 92%; Number of Long-Term Survivors (%) (>30 days) (MSV; [7]): 100%; Number of Mice not Developing a Tumor (percent) (MSV; 50 mg/kg): 100%; Number of Long-Term Survivors (%) (>30 days) (MSV; 50 mg/kg, premature death not taken into account): 100%
C[C@H](COc1cc(N)nc(N)n1)OCP(=O)(O)O [Compound 11, 2,4-diamino-6-(R)-[2-(phosphonomethoxy)propoxy]pyrimidine]	0.12 µg/mL (≈ 0.431 µM)	1.3 ± 0.4 µg/mL (≈ 4.67 µM)	1.6 ± 0.6 µg/mL (≈ 5.75 µM)	30 fold	3.5 fold	1.9 fold	0.66 ± 0.14 µg/mL (≈ 2.37 µM)	3.0 ± 0.4 µg/mL (≈ 10.8 µM)	1.2 ± 0.25 µg/mL (≈ 4.31 µM)	0.35 ± 0.17 µg/mL	1.5 ± 0.70 µg/mL	0.77 ± 0.38 µg/mL	1.1 ± 0.51 µg/mL	0.83 ± 0.35 µg/mL	1.8 µg/mL (≈ 6.47 µM)	1.9 ± 0.5 µg/mL (≈ 6.83 µM)	5%	0%	40%	15%	Activity against NNRTI-specific mutant virus strains, in words [6]: retained full activity; Antiretroviral (anti-HIV-1) activity in CEM cell cultures, in words (HIV-1(IIIB) [5]): markedly more inhibitory; Number of Mice not Developing a Tumor (percent) (MSV; 20 mg/kg): 20%; Number of Long-Term Survivors (%) (>30 days) (MSV; [7]): 40^c %
